The numbers were not newly measured in article PMC11101992 (Clinical and Translational Science, 2024), which cites them from elsewhere.

For series [1], the system named is IL‐1β release.

Consider `CS(=O)(=O)CCC#N` [dapansutrile], for which the “IL‐1β release reduction (in words)” value in series [1] (healthy subjects and patients with gout flare) was “only partially reduced”.
For the molecule `CN[C@@H]1COc2c(S(=O)(=O)NC(=O)Nc3c4c(cc5c3CCC5)CCC4)cnn2C1` [GDC‐2394], the “healthy subjects with rash” value (900 mg) is on record as 22%.
`CN1CCC[C@]1(C)/C=C/S(=O)(=O)NC(=O)Nc1c2c(cc3c1CCC3)CCC2` [ZYIL1]: in series [1] (healthy subjects), the “IL‐1β release inhibition” value is greater than 90%. The “drug‐related skin reactions (in words)” value (early clinical trials) was “did not yet report any drug‐related skin reactions”.
